Assay results: ChEMBL document CHEMBL3046469, “Fungicidal Activities of 2-(Substituted Phenoxymethyl)phenyl-2-methoxyiminoacaetamide Derivatives” (1998)

Assays:
Format in all cases: functional
[1] = tested on: Pseudoperonospora cubensis; test: Fungicidal activity against Pseudoperonospora cubensis assessed as cucumber downy mildew disease control at 7.8 ppm foliar application 24 hr before inoculation onto the adaxial(treated) surface of leaf by preventive manner
[2] = tested on: Blumeria graminis f. sp. tritici; test: Fungicidal activity against Blumeria graminis f. sp. tritici assessed as wheat powdery mildew disease control at 2 ppm foliar application for 48 hr before inoculation by preventive manner
Pyricularia oryzae [3] = test: Fungicidal activity against Magnaporthe oryzae assessed as rice blast disease control at 2 ppm foliar application for 24 hr before inoculation at 27 +/- 2 degC measured after 5 days by preventive manner
Thanatephorus cucumeris [4] = test: Fungicidal activity against Thanatephorus cucumeris assessed as rice sheath blight disease control at 7.8 ppm foliar application for 24 hr before inoculation at 26 +/- 2 degC measured after 5 days by preventive manner
Podosphaera fuliginea [5] = test: Fungicidal activity against Podosphaera fuliginea assessed as cucumber powdery mildew control at 7.8 ppm foliar application 24 hr before inoculation at 23 +/- 2 degC by preventive manner
Botrytis cinerea [6] = test: Fungicidal activity against Botryotinia fuckeliana assessed as cucumber gray mold disease control at 31.3 ppm foliar application […] at 22 +/- 2 degC by preventive manner
[7] = tested on: Pseudoperonospora cubensis; test: Fungicidal activity against Pseudoperonospora cubensis assessed as cucumber downy mildew disease control at 125 ppm foliar application 24 hr before inoculation onto the abaxial(untreated) surface of leaf by preventive manner
Botrytis cinerea [8] = test: Fungicidal activity against Botryotinia fuckeliana assessed as cucumber gray mold disease control at 7.8 ppm foliar application […] at 22 +/- 2 degC by preventive manner
Pyricularia oryzae [9] = test: Fungicidal activity against Magnaporthe oryzae assessed as rice blast disease control at 7.8 ppm foliar application for 24 hr before inoculation at 27 +/- 2 degC measured after 5 days by preventive manner
[10] = tested on: Pseudoperonospora cubensis; test: Fungicidal activity against Pseudoperonospora cubensis assessed as cucumber downy mildew disease control at 7.8 ppm foliar application 24 hr before inoculation onto the abaxial(untreated) surface of leaf by preventive manner
Thanatephorus cucumeris [11] = test: Fungicidal activity against Thanatephorus cucumeris assessed as rice sheath blight disease control at 125 ppm foliar application for 24 hr before inoculation at 26 +/- 2 degC measured after 5 days by preventive manner
[12] = tested on: Pseudoperonospora cubensis; test: Fungicidal activity against Pseudoperonospora cubensis assessed as cucumber downy mildew disease control at 2 ppm foliar application 24 hr before inoculation onto the adaxial(treated) surface of leaf by preventive manner
Podosphaera fuliginea [13] = test: Fungicidal activity against Podosphaera fuliginea assessed as cucumber powdery mildew control at 2 ppm foliar application 24 hr before inoculation at 23 +/- 2 degC by preventive manner
Thanatephorus cucumeris [14] = test: Fungicidal activity against Thanatephorus cucumeris assessed as rice sheath blight disease control at 31.3 ppm foliar application for 24 hr before inoculation at 26 +/- 2 degC measured after 5 days by preventive manner
Botrytis cinerea [15] = test: Fungicidal activity against Botryotinia fuckeliana assessed as cucumber gray mold disease control at 125 ppm foliar application […] at 22 +/- 2 degC by preventive manner
[16] = tested on: Pseudoperonospora cubensis; test: Fungicidal activity against Pseudoperonospora cubensis assessed as cucumber downy mildew disease control at 31.3 ppm foliar application 24 hr before inoculation onto the adaxial(treated) surface of leaf by preventive manner
Pyricularia oryzae [17] = test: Fungicidal activity against Magnaporthe oryzae assessed as rice blast disease control at 125 ppm foliar application for 24 hr before inoculation at 27 +/- 2 degC measured after 5 days by preventive manner
Podosphaera fuliginea [18] = test: Fungicidal activity against Podosphaera fuliginea assessed as cucumber powdery mildew control at 125 ppm foliar application 24 hr before inoculation at 23 +/- 2 degC by preventive manner
[19] = tested on: Blumeria graminis f. sp. tritici; test: Fungicidal activity against Blumeria graminis f. sp. tritici assessed as wheat powdery mildew disease control at 125 ppm foliar application for 48 hr before inoculation by preventive manner
[20] = tested on: Pseudoperonospora cubensis; test: Fungicidal activity against Pseudoperonospora cubensis assessed as cucumber downy mildew disease control at 31.3 ppm foliar application 24 hr before inoculation onto the abaxial(untreated) surface of leaf by preventive manner
Pyricularia oryzae [21] = test: Fungicidal activity against Magnaporthe oryzae assessed as rice blast disease control at 31.3 ppm foliar application for 24 hr before inoculation at 27 +/- 2 degC measured after 5 days by preventive manner
[22] = tested on: Blumeria graminis f. sp. tritici; test: Fungicidal activity against Blumeria graminis f. sp. tritici assessed as wheat powdery mildew disease control at 7.8 ppm foliar application 48 24 hr before inoculation by preventive manner
Botrytis cinerea [23] = test: Fungicidal activity against Botryotinia fuckeliana assessed as cucumber gray mold disease control at 2 ppm foliar application […] at 22 +/- 2 degC by preventive manner
Podosphaera fuliginea [24] = test: Fungicidal activity against Podosphaera fuliginea assessed as cucumber powdery mildew control at 31.3 ppm foliar application 24 hr before inoculation at 23 +/- 2 degC by preventive manner
[25] = tested on: Pseudoperonospora cubensis; test: Fungicidal activity against Pseudoperonospora cubensis assessed as cucumber downy mildew disease control at 125 ppm foliar application 24 hr before inoculation onto the adaxial(treated) surface of leaf by preventive manner
[26] = tested on: Blumeria graminis f. sp. tritici; test: Fungicidal activity against Blumeria graminis f. sp. tritici assessed as wheat powdery mildew disease control at 31.3 ppm foliar application for 48 hr before inoculation by preventive manner
Botrytis cinerea [27] = test: Fungicidal activity against Botryotinia fuckeliana assessed as cucumber gray mold disease control at 125 ppm foliar application […] at 22 +/- 2 degC by curative manner
Pyricularia oryzae [28] = test: Fungicidal activity against Magnaporthe oryzae assessed as rice blast disease control at 125 ppm foliar application for 24 hr after inoculation at 27 +/- 2 degC measured after 5 days by curative manner
Podosphaera fuliginea [29] = test: Fungicidal activity against Podosphaera fuliginea assessed as cucumber powdery mildew control at 7.8 ppm foliar application 24 hr after inoculation at 23 +/- 2 degC by curative manner
Podosphaera fuliginea [30] = test: Fungicidal activity against Podosphaera fuliginea assessed as cucumber powdery mildew control at 125 ppm foliar application 24 hr after inoculation at 23 +/- 2 degC by curative manner
[31] = tested on: Blumeria graminis f. sp. tritici; test: Fungicidal activity against Blumeria graminis f. sp. tritici assessed as wheat powdery mildew disease control at 125 ppm foliar application for 48 hr after inoculation by curative manner

Measured: Activity

CNC(=O)/C(=N/OC)c1ccccc1COc1ccccc1C(F)(F)F
90%: [1] | [2] | Pyricularia oryzae [3] | Thanatephorus cucumeris [4] | Podosphaera fuliginea [5] | Botrytis cinerea [6] | [7]

CNC(=O)/C(=N/OC)c1ccccc1COc1cccc(C(F)(F)F)c1
90%: [1] | [2] | Botrytis cinerea [8] | Pyricularia oryzae [9] | Podosphaera fuliginea [5] | [10] | Thanatephorus cucumeris [11]

CNC(=O)/C(=N/OC)c1ccccc1COc1ccccc1C
90%: [2] | Botrytis cinerea [8] | Pyricularia oryzae [3] | [12] | Podosphaera fuliginea [13] | Thanatephorus cucumeris [14] | [7]

CNC(=O)/C(=N/OC)c1ccccc1COc1ccccc1OC(C)C
<90%: Botrytis cinerea [15] | [19] | Thanatephorus cucumeris [11] | [7]
90%: [16] | Pyricularia oryzae [17] | Podosphaera fuliginea [18]

CNC(=O)/C(=N/OC)c1ccccc1COc1ccc(OC(C)C)cc1
90%: [16] | [20] | Botrytis cinerea [8] | Podosphaera fuliginea [5] | Pyricularia oryzae [21] | Thanatephorus cucumeris [14] | [22]

CNC(=O)/C(=N/OC)c1ccccc1COc1cccc(-c2ccccc2)c1
90%: Pyricularia oryzae [3] | [12] | Podosphaera fuliginea [13] | [10] | Thanatephorus cucumeris [14] | [22] | Botrytis cinerea [23]

CNC(=O)/C(=N/OC)c1ccccc1COc1ccc(C#N)cc1
<90%: Pyricularia oryzae [17] | Podosphaera fuliginea [18] | Thanatephorus cucumeris [11]
90%: [16] | [19] | Botrytis cinerea [6] | [7]

CNC(=O)/C(=N/OC)c1ccccc1COc1cccc(N(C)C)c1
90%: [16] | Pyricularia oryzae [17] | Botrytis cinerea [6]
<90%: Podosphaera fuliginea [18] | [19] | Thanatephorus cucumeris [11] | [7]

CNC(=O)/C(=N/OC)c1ccccc1COc1ccc(F)c(F)c1
<90%: [25] | Thanatephorus cucumeris [11] | [7]
90%: Botrytis cinerea [8] | Podosphaera fuliginea [24] | Pyricularia oryzae [21] | [26]

CNC(=O)/C(=N/OC)c1ccccc1COc1ccc(Cl)cc1Cl
<90%: Thanatephorus cucumeris [11]
90%: [1] | [20] | [2] | Podosphaera fuliginea [13] | Pyricularia oryzae [21] | Botrytis cinerea [23]

CNC(=O)/C(=N/OC)c1ccccc1COc1c(Cl)cccc1Cl
<90%: Podosphaera fuliginea [18] | [25] | Thanatephorus cucumeris [11] | [7]
90%: Botrytis cinerea [15] | Pyricularia oryzae [17] | [26]

CNC(=O)/C(=N/OC)c1ccccc1COc1cccc(C)c1C
90%: Pyricularia oryzae [3] | Botrytis cinerea [6] | [12] | Podosphaera fuliginea [24] | Thanatephorus cucumeris [11] | [26] | [7]

CNC(=O)/C(=N/OC)c1ccccc1COc1ccc(C)cc1C
90%: Pyricularia oryzae [17] | [2] | Thanatephorus cucumeris [4] | Podosphaera fuliginea [5] | [12] | Botrytis cinerea [23] | [7]

CNC(=O)/C(=N/OC)c1ccccc1COc1ccc(C)c(C)c1
90%: [2] | Botrytis cinerea [8] | Pyricularia oryzae [9] | Podosphaera fuliginea [5] | [12] | Thanatephorus cucumeris [11] | [7]

CNC(=O)/C(=N/OC)c1ccccc1COc1ccc(Cl)cc1C
90%: [2] | Pyricularia oryzae [9] | [12] | Podosphaera fuliginea [13] | [10] | Thanatephorus cucumeris [14] | Botrytis cinerea [23]

CNC(=O)/C(=N/OC)c1ccccc1COc1ccc(Cl)c(C)c1
90%: [2] | Botrytis cinerea [8] | Pyricularia oryzae [9] | Podosphaera fuliginea [5] | [12] | [10]
<90%: Thanatephorus cucumeris [11]

CNC(=O)/C(=N/OC)c1ccccc1COc1c(Cl)ccc(Cl)c1Cl
<90%: Thanatephorus cucumeris [11] | [7]
90%: Botrytis cinerea [15] | [16] | Pyricularia oryzae [17] | Podosphaera fuliginea [18] | [19]

CNC(=O)/C(=N/OC)c1ccccc1COc1c(Cl)cc(Cl)cc1Cl
90%: [16] | Pyricularia oryzae [17] | Podosphaera fuliginea [18] | Botrytis cinerea [6] | [26]
<90%: Thanatephorus cucumeris [11] | [7]

CNC(=O)/C(=N/OC)c1ccccc1COc1cc(C)cc(C)c1C
90%: [2] | Pyricularia oryzae [9] | Thanatephorus cucumeris [4] | [12] | Podosphaera fuliginea [13] | Botrytis cinerea [23] | [7]

CO/N=C(/C(=O)N(C)C)c1ccccc1COc1cc(C)ccc1C
90%: Botrytis cinerea [15] | Pyricularia oryzae [28] | Podosphaera fuliginea [24] | Podosphaera fuliginea [29] | Pyricularia oryzae [21]
<90%: Botrytis cinerea [27]

CO/N=C(/C(=O)NN)c1ccccc1COc1cc(C)ccc1C
<90%: Botrytis cinerea [15] | Pyricularia oryzae [28] | Podosphaera fuliginea [30]
90%: Pyricularia oryzae [17] | Podosphaera fuliginea [18]

CO/N=C(/C(=O)NOC)c1ccccc1COc1cc(C)ccc1C
90%: Botrytis cinerea [15] | Pyricularia oryzae [17] | Podosphaera fuliginea [29]
<90%: Botrytis cinerea [27] | Pyricularia oryzae [28] | Podosphaera fuliginea [18]

CNC(=O)/C(=N\OC)c1ccccc1COc1ccccc1
90%: Podosphaera fuliginea [18] | [19]
<90%: Botrytis cinerea [15] | Botrytis cinerea [27] | Pyricularia oryzae [17] | Pyricularia oryzae [28] | Podosphaera fuliginea [30] | [31]

CNC(=O)/C(=N\OC)c1ccccc1COc1ccc(Cl)cc1
<90%: Botrytis cinerea [15] | Botrytis cinerea [27] | Pyricularia oryzae [17] | Pyricularia oryzae [28] | Podosphaera fuliginea [30] | [31]
90%: Podosphaera fuliginea [18] | [19]

CNC(=O)/C(=N\OC)c1ccccc1COc1cccc(OC(C)C)c1
90%: Botrytis cinerea [15] | Pyricularia oryzae [17] | Podosphaera fuliginea [30] | [31] | Podosphaera fuliginea [24]
<90%: Botrytis cinerea [27] | Pyricularia oryzae [28] | [19]

CNC(=O)/C(=N\OC)c1ccccc1COc1ccc(-c2ccccc2)cc1
<90%: Botrytis cinerea [15] | Botrytis cinerea [27] | Pyricularia oryzae [17] | Pyricularia oryzae [28] | [19] | Podosphaera fuliginea [30]
90%: [31] | Podosphaera fuliginea [24]
